Here are results for 29 molecules from patent US8288390B2, “Benzofuran derivatives” (Takeda Pharmaceutical Company Limited, priority 2009, dated 2012).

Each structure is given as a SMILES string.

The first assay relates to rat mixed glial culture. Description: Activity of promoting neuronal neogenesis in rat mixed glial culture. It is filed as cell-based. The settings on record: Rattus norvegicus, 72 h, compound 1 μM + rhIGF-1 100 ng/ml, 3 days culture; absorbance at 450 nm (class III beta-tubulin antibody); control rhIGF-1 only = 100%; read-out: Increase Ratio of the Absorbance (% control). On the procedure:
From a three-day old SD rat, hippocampus and cerebral cortex were removed. By using a kit of dispersion liquid for neuronal cells (MB-X9901, manufactured by SUMITOMO BAKELITE CO., LTD.), cell suspension was prepared and then seeded on a 96-well plate coated with collagen Type I (4860-010, manufactured by Asahi Techno Glass Co., Ltd.) to 10^5 cells/well. Under the condition of 37° C. and 5% CO2, the cells were cultured for four days in a growth medium (D-MEM/F12 with 10% FBS, comprising PS).
After culturing, the medium was exchanged with a medium for differentiation (D-MEM/F12, comprising PS), added with rhIGF-1 (R&D Systems, 291-G1-250, final concentration of 100 ng/ml) and the compound to 1 μM, followed by further culture for three days. Cultured cells were fixed with 4% paraformaldehyde-PBS (manufactured by MUTO PURE CHEMICALS CO., LTD.) and subjected to membrane penetration using 0.1% Triton X-100 PBS, followed by blocking with Block Ace solution (UK-B80, manufactured by Dainippon Sumitomo Pharma Co., Ltd.). As a primary antibody, Anti-neuron-specific class III beta-tubulin antibody (R&D Systems, MAB1195, clone Tuj-1) was used after 1000× dilution. As a secondary antibody, Anti-Mouse Ig, HRP-Linked F (ab′) 2 Fragment Sheep (Amersham Biosciences, NA9310) was used after 10000× dilution. For washing process, the plate washer (BIO-TEK INSTRUMENTS ELX405) was used. For a chromogenic reaction, the reaction was carried out for 10 minutes using TMB Microwell Peroxidase Substrate System (Kirkegaard & Perry Laboratories, 50-76-00), followed by terminating the reaction according to the addition of 1M phosphoric acid. By using the plate reader (Labsystems Multiskan BICHROMATIC), absorbance at 450 nm was measured.
The absorbance for the case in which no compound is added (i.e., control, rhIGF-1 only) was 100%, and the increase ratio of the absorbance for the compound addition (i.e., compound+rhIGF-1) compared to the control was obtained as % control. Activity of the each compound for promoting neuronal differentiation that is measured according to the above method is summarized in Table 9 and Table 10.
Regarding `COc1ccc(N2CCN(c3c(C)c4c(c(OC)c3C)OC(C)C4)CC2)cc1F` (centres unmarked) [Example 59, 1-(3-Fluoro-4-methoxyphenyl)-4-(7-methoxy-2,4,6-trimethyl-2,3-dihydro-1-benzofuran-5-yl)piperazine], the activity at 1 µM was determined as 478%.

With `COc1ccc(N2CCN(c3c(C)c(C)c4c(c3C)CC(C)(CN3CCC(O)CC3)O4)CC2)cc1` (centres unmarked) [Example 133, 1-({5-[4-(4-methoxyphenyl)piperazin-1-yl]-2,4,6,7-tetramethyl-2,3-dihydro-1-benzofuran-2-yl}methyl)piperidine-4-ol], the activity at 1 µM is > 500%.

Turning to `COc1ccc(N2CCN(c3c(C)c(C)c4c(c3C)CC(C)(CNC(C)=O)O4)CC2)cc1` (centres unmarked) [Example 137, N-({5-[4-(4-methoxyphenyl)piperazin-1-yl]-2,4,6,7-tetramethyl-2,3-dihydro-1-benzofuran-2-yl}methyl)acetamide], the activity at 1 µM was > 500%.

In the case of `COc1ccc(N2CCN(c3c(C)c(C)c4c(c3C3CC3)CC(C)(C)O4)CC2)cc1` [Example 7, 1-(4-Cyclopropyl-2,2,6,7-tetramethyl-2,3-dihydro-1-benzofuran-5-yl)-4-(4-methoxyphenyl)piperazine], the activity at 1 µM came out at 325%.

Regarding `Cc1c(C)c(N2CCN(c3ccc(S(C)(=O)=O)cc3)CC2)c(C)c2c1OC(C)(C)C2` [Example 92, 1-[4-(Methylsulfonyl)phenyl]-4-(2,2,4,6,7-pentamethyl-2,3-dihydro-1-benzofuran-5-yl)piperazine], the activity at 1 µM is 457%.

Consider `Cc1nn(C)c(C)c1N1CCN(c2c(C)c(C)c3c(c2C)CC(C)(C)O3)CC1` [Example 117, 1-(2,2,4,6,7-Pentamethyl-2,3-dihydro-1-benzofuran-5-yl)-4-(1,3,5-trimethyl-1H-pyrazole-4-yl)piperazine], for which the activity at 1 µM came to 100%.

In the case of `C=Cc1c2c(c(C)c(C)c1N1CCN(c3ccc(OC)cc3)CC1)OC(C)(C)C2` [Example 8, 1-(4-Ethenyl-2,2,6,7-tetramethyl-2,3-dihydro-1-benzofuran-5-yl)-4-(4-methoxyphenyl)piperazine], the activity at 1 µM is 242%.

In the case of `COc1ccc(N2CCN(c3c(C)c(C)c4c(c3C)CC(C)(CN)O4)CC2)cc1` (centres unmarked) [Example 108, 1-{5-[4-(4-Methoxyphenyl)piperazin-1-yl]-2,4,6,7-tetramethyl-2,3-dihydro-1-benzofuran-2-yl}methaneamine], the activity at 1 µM was found to be 282%.

For `COc1ccc(C2CN(c3c(C)c(C)c4c(c3C)CC(C)(C)O4)CCO2)cc1` (centres unmarked) [Example 15, 2-(4-Methoxyphenyl)-4-(2,2,4,6,7-pentamethyl-2,3-dihydro-1-benzofuran-5-yl)morpholine], the activity at 1 µM is 332%.

Consider `COc1ccc(N2CCN(c3c(C)c(C)c4c(c3C)CC3(CCCC3)O4)CC2)cc1` [Example 19, 1-(4-Methoxyphenyl)-4-(4,6,7-trimethyl-3H-spiro[1-benzofuran-2,1′-cyclopentan]-5-yl)piperazine], for which the activity at 1 µM was found to be 278%.

For `COc1ccc(N2CCN(c3c(C)c(C)c4c(c3C)CC(C)(C)O4)CC2)cn1` [Example 40, 1-(6-Methoxypyridin-3-yl)-4-(2,2,4,6,7-pentamethyl-2,3-dihydro-1-benzofuran-5-yl)piperazine], the activity at 1 µM amounted to 341%.

As to `COc1ccc(C2CN(c3c(C)c(C)c4c(c3C)CC(C)(C)O4)CCN2C)cc1` (centres unmarked) [Example 13, 2-(4-Methoxyphenyl)-1-methyl-4-(2,2,4,6,7-pentamethyl-2,3-dihydro-1-benzofuran-5-yl)piperazine], the activity at 1 µM was found to be 265%.

For the molecule `COc1ccc(N2CCN(c3c(C)c(C)c4c(c3-c3ccoc3)CC(C)(C)O4)CC2)cc1` [Example 6, 1-(4-Furan-3-yl-2,2,6,7-tetramethyl-2,3-dihydro-1-benzofuran-5-yl)-4-(4-methoxyphenyl)piperazine], the activity at 1 µM was > 500%.

Regarding `CCOc1ccc(N2CCN(c3c(C)c4c(c(OCC)c3C)OC(C)C4)CC2)cc1` (centres unmarked) [Example 61, 1-(4-Ethoxyphenyl)-4-(7-ethoxy-2,4,6-trimethyl-2,3-dihydro-1-benzofuran-5-yl)piperazine], the activity at 1 µM was > 500%.

Take `COc1ccc(N2CCN(c3c(C)c(C)c4c(c3C(C)C)CC(C)(C)O4)CC2)cc1` [Example 11, 1-(4-Methoxyphenyl)-4-[2,2,6,7-tetramethyl-4-(1-methylethyl)-2,3-dihydro-1-benzofuran-5-yl]piperazine]: the activity at 1 µM was found to be 159%.

With `CCOc1c(C)c(N2CCN(c3ccc(OC)cc3)CC2)c(C)c2c1OC(C)(C)C2` [Example 46, 1-(7-Ethoxy-2,2,4,6-tetramethyl-2,3-dihydro-1-benzofuran-5-yl)-4-(4-methoxyphenyl)piperazine], the activity at 1 µM is 221%.

Regarding `COc1ccc(N2CCCN(c3c(C)c(C)c4c(c3C)CC(C)(C)O4)CC2)cc1` [Example 45, 1-(4-Methoxyphenyl)-4-(2,2,4,6,7-pentamethyl-2,3-dihydro-1-benzofuran-5-yl)-1,4-diazepane], the activity at 1 µM came out at 205%.

On to `Cc1cc(N2CCN(c3c(C)c(C)c4c(c3C)CC(C)(C)O4)CC2)ccc1F` [Example 35, 1-(4-Fluoro-3-methylphenyl)-4-(2,2,4,6,7-pentamethyl-2,3-dihydro-1-benzofuran-5-yl)piperazine], for which the activity at 1 µM is 182%.

Turning to `Cc1ccc(N2CCN(c3c(C)c(C)c4c(c3C)CC(C)(C)O4)CC2)cc1` [Example 12, 1-(4-Methylphenyl)-4-(2,2,4,6,7-pentamethyl-2,3-dihydro-1-benzofuran-5-yl)piperazine], the activity at 1 µM came to 336%.

As to `COc1ccc(N2CCN(c3c(C)c4c(c(OC)c3C)OC(C)C4)CC2)cc1` (centres unmarked) [Example 48, 1-(4-Methoxyphenyl)-4-(7-methoxy-2,4,6-trimethyl-2,3-dihydro-1-benzofuran-5-yl)piperazine], the activity at 1 µM was > 500%.

Take `COc1ccc(N2CCN(c3cc4c(cc3-c3ccc(C)cc3)OC(C)(C)C4)CC2)cc1` [Example 2, 1-[2,2-Dimethyl-6-(4-methylphenyl)-2,3-dihydro-1-benzofuran-5-yl]-4-(4-methoxyphenyl)piperazine]: the activity at 1 µM amounted to 432%.

On to `Cc1c(C)c(N2CCOC(Cc3ccccc3)C2)c(C)c2c1OC(C)(C)C2` (centres unmarked) [Example 16, 2-Benzyl-4-(2,2,4,6,7-pentamethyl-2,3-dihydro-1-benzofuran-5-yl)morpholine], for which the activity at 1 µM amounted to 344%.

Consider `CCc1c2c(c(C)c(C)c1N1CCN(c3ccc(OC)cc3)CC1)OC(C)(C)C2` [Example 9, 1-(4-Ethyl-2,2,6,7-tetramethyl-2,3-dihydro-1-benzofuran-5-yl)-4-(4-methoxyphenyl)piperazine], for which the activity at 1 µM worked out at 228%.

In the case of `Cc1c(C)c(N2CCN(c3ccc(F)cc3)CC2)c(C)c2c1OC(C)(C)C2` [Example 41, 1-(4-Fluorophenyl)-4-(2,2,4,6,7-pentamethyl-2,3-dihydro-1-benzofuran-5-yl)piperazine], the activity at 1 µM was > 500%.

On to `COc1ccc(N2CCN(c3c(C)c(C)c4c(c3C)CC(C)(C)O4)CC2)cc1F` [Example 32, 1-(3-Fluoro-4-methoxyphenyl)-4-(2,2,4,6,7-pentamethyl-2,3-dihydro-1-benzofuran-5-yl)piperazine], for which the activity at 1 µM was > 500%.

On to `CC(=O)c1ccc(N2CCN(c3c(C)c(C)c4c(c3C)CC(C)(C)O4)CC2)cc1` [Example 95, 1-{4-[4-(2,2,4,6,7-Pentamethyl-2,3-dihydro-1-benzofuran-5-yl)piperazin-1-yl]phenyl}ethanone], for which the activity at 1 µM stood at 405%.

Turning to `Cc1c(C)c(N2CCN(c3ccc(C#N)cc3)CC2)c(C)c2c1OC(C)(C)C2` [Example 90, 4-[4-(2,2,4,6,7-Pentamethyl-2,3-dihydro-1-benzofuran-5-yl)piperazin-1-yl]benzonitrile], the activity at 1 µM is > 500%.

Staying with this assay, now noted: compound 1 μM + rhIGF-1 100 ng/ml, 3 days culture; absorbance at 450 nm (class III beta-tubulin antibody); control rhIGF-1 only = 100%.
`COc1ccc(N2CCN(c3c(C)c(C)c4c(c3C)CC(C)(CO)O4)CC2)cc1` (single isomer, unassigned; (-)) [Example 143, (−)-{5-[4-(4-methoxyphenyl)piperazin-1-yl]-2,4,6,7-tetramethyl-2,3-dihydro-1-benzofuran-2-yl}methanol]: the “Increase Ratio of the Absorbance (% control)” value is >500 % control.

With `COc1ccc(N2CCN(c3c(C)c(C)c4c(c3C)CC(C)(CO)O4)CC2)cc1` (centres unmarked) [Example 97, {5-[4-(4-Methoxyphenyl)piperazin-1-yl]-2,4,6,7-tetramethyl-2,3-dihydro-1-benzofuran-2-yl}methanol], the “Increase Ratio of the Absorbance (% control)” value was 439 % control.
